Earlier results, collected in publication PMC4369286 (Chemistry Central Journal, 2015).
Read-outs that look alike come from different tables or passages of the source. Values belong to the compound of their own block, whether it stands above or below them.

Columns and labels:
[1] = for E (excess molar refractivity descriptor): known values used for comparison
[2] = value of the pure solvent
[3] = in several of the organic solvents studied
[4] = parameters: method as in earlier work; conditions: direct partition, monomer
[5] = known value given as comparison

SMILES: O=C(O)c1ccccc1 [Benzoic acid, benzoic acid]
S (dipolarity/polarity descriptor) [1, 5]: 0.90 | V (McGowan characteristic volume descriptor) [1, 5]: 0.9317 | E (excess molar refractivity descriptor) [1]: 0.73 | E (excess molar refractivity descriptor) ([1]; listed as benzoic acid): 0.730 | Kdimer (dimerization constant) (in benzene): 590 | Kdimer (dimerization constant) (in cyclohexane): 11300 | Kdimer (dimerization constant) (in tetrachloromethane): 5010

Kamlet-Taft solvent hydrogen bond basicity, β [2]: 0.40
SMILES: CC#N [acetonitrile]

solubility in organic solvents [3]: exceeding 1 molar
SMILES: CC(=O)Oc1ccccc1C(=O)O [aspirin]

Kamlet-Taft solvent hydrogen bond basicity, β [2]: 0.00
SMILES: C1CCCCC1 [cyclohexane]

SMILES: CCOCC [diethyl ether]
Kamlet-Taft solvent hydrogen bond basicity, β [2]: 0.47

SMILES: CCOC(=O)c1ccccc1 [ethyl benzoate]
E (excess molar refractivity descriptor) [1]: 0.689

E (excess molar refractivity descriptor) [1]: 1.102
SMILES: CCOC(=O)/C=C/c1ccccc1 [ethyl cinnamate]

SMILES: CO [methanol]
Kamlet-Taft solvent hydrogen bond basicity, β [2]: 0.66

SMILES: O=[N+]([O-])c1ccccc1 [nitrobenzene]
Kamlet-Taft solvent hydrogen bond basicity, β [2]: 0.30

SMILES: CC(C)=O [propanone]
Kamlet-Taft solvent hydrogen bond basicity, β [2]: 0.43

Kamlet-Taft solvent hydrogen bond basicity, β [2]: 0.40
SMILES: CCCOC(C)=O [propyl acetate]

Log Ps (water-solvent partition coefficient) ([4]; solvent Cyclohexane): −0.25 | Log Ps (water-solvent partition coefficient) ([4]; solvent Diethyl ether, wet): 1.92 | Log Ps (water-solvent partition coefficient) ([4]; solvent Octan-1-ol, wet): 2.13 | Log Ps (water-solvent partition coefficient) ([4]; solvent Tetrachloromethane): 0.40 | Log Ps (water-solvent partition coefficient) ([4]; solvent Trichloromethane): 1.20
SMILES: O=C(O)/C=C/c1ccccc1 [trans-cinnamic acid]

SMILES: ClC(Cl)Cl [trichloromethane]
Kamlet-Taft solvent hydrogen bond basicity, β [2]: 0.10

SMILES: OCC(F)(F)F [trifluoroethanol]
Kamlet-Taft solvent hydrogen bond basicity, β [2]: 0.00
